Where “and” joins values, the source holds several entries; their conditions need not be identical. Identical values can stand only once. Each block holds one compound with its values, some of them ahead of it.
How the values were obtained:
[1] = LNP average particle size and polydispersity by dynamic light scattering; assay type: physicochemical
Procedure, shortened: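 LNPs were diluted in PBS to a count rate of about 200-400 kcps and measured by DLS on a Zetasizer. Size is the intensity-weighted Z-average diameter, reported with number-average diameter, and the polydispersity index describes the spread of sizes around the mean.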

[2] = test system: mouse TTR; assay: Serum TTR ELISA in mice after LNP delivery; assay type: in vivo
Procedure, shortened: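 Mouse TTR in serum was quantified by ELISA (samples diluted e.g. 10,000- and/or 2,500-fold) 6–7 days after dosing CD-1 females with LNP, typically 0.1 mpk. Values are reported relative to vehicle-treated controls (%).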

[3] = RNA encapsulation efficiency of LNP (Ribogreen fluorescence assay); assay type: physicochemical; conditions: for % E: Table 13, LNP sgRNA:Cas9 mRNA 1:2 w/w, N/P 6.0
Procedure, shortened: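 LNP samples diluted in 1× TE with or without 0.2% Triton-X 100 for total or free RNA, stained ~10 min at room temperature in the dark with RiboGreen; fluorescence ex 488/em 525 nm against RNA standard curves. Encapsulation efficiency = (Total RNA−Free RNA)/Total RNA.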

[4] = pKa of amine lipid by TNS fluorescence; assay type: physicochemical; conditions: probe TNS (6-(p-toluidino)-2-naphthalenesulfonic acid sodium salt), unformulated amine lipid in ethanol, sodium phosphate buffers -9.0
Procedure, shortened: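 pKa derived from a sigmoidal fit of normalized TNS fluorescence (321 nm excitation, 448 nm emission) versus pH. Lipid from ethanol stock diluted to about 100 μM final in 0.1 M phosphate buffers, pH 4.5–9.0.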

[5] = LNP with the compound as amine lipid, Expt. 1, composition ratio (mol %) 50/9/38/3 for Cmpnd 49, 50/10/38.5/1.5 for the others
[6] = LNP with the compound as amine lipid, Expt. 6, composition ratio (mol %) 50/9/38/3 for Cmpnd 49, 50/10/38.5/1.5 for the others
[7] = LNP with the compound as amine lipid, Expt. 10, composition ratio (mol %) 50/9/38/3 for Cmpnd 49, 50/10/38.5/1.5 for the others
[8] = Table 6, LNP with G00282 sgRNA:Cas9 mRNA 1:1 w/w
[9] = Table 10, LNP with G00534 sgRNA:Cas9 mRNA 1:2 w/w
[10] = Table 13, LNP sgRNA:Cas9 mRNA 1:2 w/w, N/P 6.0
[11] = mouse serum, relative to TSS control of same experiment, dose 0.03 mpk, 0.03 mg/kg
[12] = LNP with the compound as amine lipid, Expt. 8, composition ratio (mol %) 50/9/38/3 for Cmpnd 49, 50/10/38.5/1.5 for the others
[13] = mouse serum, relative to TSS control of same experiment, dose 0.03 mpk
[14] = mouse serum, relative to TSS control of same experiment, dose 0.1 mpk
[15] = LNP with the compound as amine lipid, Expt. 7, composition ratio (mol %) 50/9/38/3 for Cmpnd 49, 50/10/38.5/1.5 for the others
[16] = LNP with the compound as amine lipid, Expt. 4, composition ratio (mol %) 50/9/38/3 for Cmpnd 49, 50/10/38.5/1.5 for the others
[17] = Table 3, guide G282, CD-1 female mice, 0.1 mpk i.v., Exp. 1, 8, 9, 10
[18] = Table 3, guide G282, CD-1 female mice, 0.1 mpk i.v., percentage of vehicle control (TSS)
[19] = LNP with the compound as amine lipid, Expt. 2, composition ratio (mol %) 50/9/39.5/3 for Cmpnd 49, 50/9/39.5/1.5 for the others
[20] = LNP with the compound as amine lipid, Expt. 3, composition ratio (mol %) 50/9/38/3 for Cmpnd 49, 50/10/38.5/1.5 for the others

Num Ave Size (nm) [1, 5]: 76.32 nm
PDI [1, 5]: 0.02
Z-Ave Size (nm) [1, 5]: 93.66 nm
Num Ave Size (nm) [1, 6]: 73 nm
PDI [1, 6]: 0.03
Z-Ave Size (nm) [1, 6]: 89.00 nm
Num Ave Size (nm) [1, 7]: 77 nm
PDI [1, 7]: 0.03
Z-Ave Size (nm) [1, 7]: 95 nm
Num Ave Size (nm) [1, 8]: 71.97 nm
PDI [1, 8]: 0.015
Z-Ave Size (nm) [1, 8]: 86.45 nm
Num Avg Size (nm) [1, 9]: 76.08 nm
PDI [1, 9]: 0.052
Z-Avg Size (nm) [1, 9]: 96.43 nm
Number Average [nm] [1, 10]: 75.88 nm
PDI [1, 10]: 0.009
Z-Ave Size (nm) [1, 10]: 93.01 nm
Encapsulation (%) [3, 5]: 98%
Encapsulation (%) [3, 6]: 98%
Encapsulation (%) [3, 7]: 98%
Encapsulation (%) [3, 8]: 98%
Encapsulation (%) [3, 9]: 93%
% E [3]: 97%
pKa [4]: 6.36
SMILES: CCCCC/C=C\C/C=C\CCCCCCCC(=O)OCC(COC(=O)CCCCCCC/C=C\C/C=C\CCCCC)OC(=O)CCC(CCCCCCCC)OC(=O)NCCN(C)CC (stereo not drawn) [Compound 34, 2-((4-(((2-(ethyl(methyl)amino)ethyl)carbamoyl)oxy)dodecanoyl)oxy)propane-1,3-diyl (9Z,9′Z,12Z,12′Z)-bis(octadeca-9,12-dienoate)]
Serum TTR ([2]; Table 7, G00282, CD-1 female mice i.v., dose 0.1 mpk): 170 µg/mL
Serum TTR % TSS ([2]; Table 7, G00282, CD-1 female mice i.v., dose 0.1 mpk, percentage of vehicle control): 21% TSS
Serum TTR ([2]; Table 7, G00282, CD-1 female mice i.v., dose 0.3 mpk): 45 µg/mL
Serum TTR % TSS ([2]; Table 7, G00282, CD-1 female mice i.v., dose 0.3 mpk, percentage of vehicle control): 5% TSS
Serum TTR % TSS [2, 11]: 55% TSS and 85.10 % TSS

Num Ave Size (nm) [1, 16]: 73.52 nm
PDI [1, 16]: 0.015
Z-Ave Size (nm) [1, 16]: 89.83 nm
Encapsulation (%) [3, 16]: 98%
pKa [4]: 6.32
SMILES: CCCCC/C=C\C/C=C\CCCCCCCC(=O)OCC(COC(=O)CCCCCCC/C=C\C/C=C\CCCCC)OC(=O)CCC(CCCCCCCCCC)OC(=O)NCCN(C)CC (stereo not drawn) [Compound 39, 2-((4-(((2-(ethyl(methyl)amino)ethyl)carbamoyl)oxy)tetradecanoyl)oxy)propane-1,3-diyl (9Z,9′Z,12Z,12′Z)-bis(octadeca-9,12-dienoate)]
Serum TTR [2, 17]: 335 µg/mL
Serum TTR % TSS [2, 18]: 41% TSS
Serum TTR % TSS [2, 13]: 41% TSS
Serum TTR % TSS [2, 14]: 6% TSS

Num Ave Size (nm) [1, 16]: 81.51 nm
PDI [1, 16]: 0.027
Z-Ave Size (nm) [1, 16]: 101.10 nm
Encapsulation (%) [3, 16]: 97%
pKa [4]: 6.34
SMILES: CCCCC/C=C\C/C=C\CCCCCCCC(=O)OCC(COC(=O)CCCCCCC/C=C\C/C=C\CCCCC)OC(=O)CCC(CCCCCC)OC(=O)NCCN(C)CC (stereo not drawn) [Compound 40, 2-((4-(((2-(ethyl(methyl)amino)ethyl)carbamoyl)oxy)decanoyl)oxy)propane-1,3-diyl (9Z,9′Z,12Z,12′Z)-bis(octadeca-9,12-dienoate)]
Serum TTR [2, 17]: 251 µg/mL
Serum TTR % TSS [2, 18]: 31% TSS
Serum TTR % TSS [2, 13]: 77% TSS
Serum TTR % TSS [2, 14]: 9% TSS

Num Ave Size (nm) [1, 20]: 80.57 nm
PDI [1, 20]: 0.02
Z-Ave Size (nm) [1, 20]: 96.78 nm
Num Ave Size (nm) [1, 7]: 82 nm
PDI [1, 7]: 0.02
Z-Ave Size (nm) [1, 7]: 98 nm
Number Average [nm] [1, 10]: 80 nm
PDI [1, 10]: 0.009
Z-Ave Size (nm) [1, 10]: 97.21 nm
Encapsulation (%) [3, 20]: 98%
Encapsulation (%) [3, 7]: 98%
% E [3]: 98%
pKa [4]: 6.37
SMILES: CCCCC/C=C\C/C=C\CCCCCCCC(=O)OCC(COC(=O)CCCCCCC/C=C\C/C=C\CCCCC)OC(=O)CCC(CCCCCCCC)OC(=O)NCCN1CCCC1 (stereo not drawn) [Compound 51, 2-((4-(((2-(pyrrolidin-1-yl)ethyl)carbamoyl)oxy)dodecanoyl)oxy)propane-1,3-diyl (9Z,9′Z,12Z,12′Z)-bis(octadeca-9,12-dienoate)]
Serum TTR % TSS [2, 14]: 9.32 % TSS

Second part, the compound before the results:

SMILES: CCCCC/C=C\C/C=C\CCCCCCCC(=O)OCC(COC(=O)CCCCCCC/C=C\C/C=C\CCCCC)OC(=O)CCC(CCCCCCCC)OC(=O)NCC1CCCN1C (stereo not drawn) [Compound 35, 2-((4-((((1-methylpyrrolidin-2-yl)methyl)carbamoyl)oxy)dodecanoyl)oxy) propane-1,3-diyl (9Z,9′Z,12Z,12′Z)-bis(octadeca-9,12-dienoate)]
Num Ave Size (nm) [1, 12]: 62.82 nm
PDI [1, 12]: 0.068
Z-Ave Size (nm) [1, 12]: 81.51 nm
Serum TTR % TSS [2, 13]: 104.30 % TSS
Serum TTR % TSS [2, 14]: 99.13 % TSS
Encapsulation (%) [3, 12]: 99%
pKa [4]: 6.35

SMILES: CCCCC/C=C\C/C=C\CCCCCCCC(=O)OCC(COC(=O)CCCCCCC/C=C\C/C=C\CCCCC)OC(=O)CCC(CCCCCCCC)OC(=O)OCCCN1CCCC1 (stereo not drawn) [Compound 36, 2-((4-(((3-(pyrrolidin-1-yl)propoxy)carbonyl)oxy)dodecanoyl)oxy)propane-1,3-diyl (9Z,9′Z,12Z,12′Z)-bis(octadeca-9,12-dienoate)]
Num Ave Size (nm) [1, 15]: 58.34 nm
PDI [1, 15]: 0.058
Z-Ave Size (nm) [1, 15]: 75.9 nm
Serum TTR % TSS [2, 13]: 75.785 % TSS
Serum TTR % TSS [2, 14]: 43.824 % TSS
Encapsulation (%) [3, 15]: 98%
pKa [4]: 6.13

SMILES: CCCCC/C=C\C/C=C\CCCCCCCC(=O)OCC(COC(=O)CCCCCCC/C=C\C/C=C\CCCCC)OC(=O)CCC(CCCCCC)OC(=O)OCCCN1CCCC1 (stereo not drawn) [Compound 45, 2-((4-(((3-(pyrrolidin-1-yl)propoxy)carbonyl)oxy)decanoyl)oxy)propane-1,3-diyl (9Z,9′Z,12Z,12′Z)-bis(octadeca-9,12-dienoate)]
Num Ave Size (nm) [1, 19]: 85.54 nm
PDI [1, 19]: 0.021
Z-Ave Size (nm) [1, 19]: 102.70 nm
Num Ave Size (nm) [1, 15]: 77.92 nm
PDI [1, 15]: 0.012
Z-Ave Size (nm) [1, 15]: 95.26 nm
Num Avg Size (nm) [1, 9]: 83.48 nm
PDI [1, 9]: 0.052
Z-Avg Size (nm) [1, 9]: 101.00 nm
Serum TTR % TSS [2, 11]: 78.39 % TSS and 43.435 % TSS
Serum TTR % TSS [2, 14]: 10.09 % TSS
Encapsulation (%) [3, 19]: 99%
Encapsulation (%) [3, 15]: 98%
Encapsulation (%) [3, 9]: 95%
pKa [4]: 5.79

SMILES: CCCCC/C=C\C/C=C\CCCCCCCC(=O)OCC(COC(=O)CCCCCCC/C=C\C/C=C\CCCCC)OC(=O)CCC(CCCCC)OC(=O)NCCN1CCCC1 (stereo not drawn) [Compound 72, 2-((4-(((2-(pyrrolidin-1l-yl)ethyl)carbamoyl)oxy)nonanoyl)oxy)propane-1,3-diyl (9Z,9′Z,12Z,12′Z)-bis(octadeca-9,12-dienoate)]
Num Ave Size (nm) [1, 20]: 88.38 nm
PDI [1, 20]: 0.02
Z-Ave Size (nm) [1, 20]: 106.80 nm
Number Average [nm] [1, 10]: 91.47 nm
PDI [1, 10]: 0.018
Z-Ave Size (nm) [1, 10]: 111.4 nm
Serum TTR % TSS [2, 13]: 66.92 % TSS
Serum TTR % TSS [2, 14]: 26.43 % TSS
Encapsulation (%) [3, 20]: 98%
% E [3]: 94%
pKa [4]: 7.01
